Measurements: publication PMC7818921, “Synthesis and biological evaluation of heterocyclic 1,2,4-triazole scaffolds as promising pharmacological agents” (BMC Chemistry, 2021)
Converted amounts (≈) assume the structure as drawn. “And” between values parts separate entries of the source, which are not always exact repeats. Equal entries are not always repeated. Where two headings read alike, the source gives them in different places.

What was measured:
Aspergillus niger = assay: In vitro antifungal screening, tube dilution method; format: cell-based; settings: A. niger, Sabouraud dextrose broth, 25 ± 1 °C, 7 days, read-out: Minimum inhibitory concentration
Procedure: (§1) The in vitro antimicrobial screening of the synthesized 1,2,4-triazole derivatives (T1–T20) in μM was determined against Gram-positive Bacillus subtilis, […], Gram-negative Escherichia coli bacterium and fungal strains Candida albicans and Aspergillus niger by tube dilution method using ciprofloxacin, amoxycillin (antibacterial) and fluconazole (antifungal) as reference drugs. DMSO was used to dissolve the reference and sample derivatives (T1–T20). Dilutions were prepared in nutrient broth (I.P.) for bacterial (incubated at 37 ± 1 °C for 24 h) and Sabouraud dextrose broth (I.P.) for fungal species (37 ± 1 °C for 48 h for C. albicans) and (25 ± 1 °C for 7 days for A. niger) (Table 3, Figs. 4 and 5).

Candida albicans = assay: as above; format: cell-based; settings: C. albican, Sabouraud dextrose broth, 37 ± 1 °C, 48 h, read-out: Minimum inhibitory concentration
Procedure: as §1

[1] = DPPH free radical scavenging activity; settings: for IC50: DPPH antioxidant; for % inhibition: DPPH
Procedure: In the DPPH free radical scavenging activity, compounds (T1–T20) were evaluated for their free radical scavenging activity with ascorbic acid as standard compound. The scavenging effect increased with the increasing concentrations of sample compounds. DPPH is relatively stable nitrogen centered free radical that easily accepts an electron or hydrogen radical to become a stable diamagnetic molecule. DPPH radicals react with suitable reducing agents as a result of which the electrons become paired off forming the corresponding hydrazine. The solution therefore loses colour stoichometrically depending on the number of electrons taken up. […] The sample solutions were incubated for 30 min at room temperature in dark place and after then absorbance was recorded against the blank solution at 517 nm. The relative percent of DPPH scavenging activity was calculated according to the following equation: I%=Acontrol-Asample/Acontrol×100,
where Acontrol is the absorbance of the control, Asample is the absorbance of the test compound.

Pseudomonas aeruginosa = assay: In vitro antimicrobial screening, tube dilution method; format: cell-based; settings: P. aeruginosa, Gram −ve, nutrient broth, 37 ± 1 °C, 24 h, read-out: Minimum inhibitory concentration
Procedure: as §1

Bacillus subtilis = assay: as above; format: cell-based; settings: B. substilis, Gram +ve, nutrient broth, 37 ± 1 °C, 24 h, read-out: Minimum inhibitory concentration
Procedure: as §1

Escherichia coli = assay: as above; format: cell-based; settings: E. coli, Gram −ve, nutrient broth, 37 ± 1 °C, 24 h, read-out: Minimum inhibitory concentration
Procedure: as §1

[2] = test system: HCT116 (human colon cancer cells); assay: Anticancer evaluation, SRB assay; format: cell-based
Procedure: HCT116 (human colon cancer cells) were seeded at 2500 cells/well (96 well plate), allowed to attach overnight, exposed to the respective compounds for 72 h and subjected to SRB assay (570 nm). Data represent mean IC50 of at least triplicates. The compounds were all dissolved in DMSO as stock of 100 mg/ml. […] The highest concentration of each compound tested (100 μg/ml) contained only 0.1% DMSO.

Jack Bean Urease = Jack Bean Urease (Canavalia ensiformis, UniProt P07374); assay: biochemical; settings: for % inhibition: urease
Procedure: Urease inhibitory potential for each synthesisized compound (T1–T20) was evaluated using Jack Bean Urease by Indophenol method (Table 5, Figs. 9, 10, 11). 250 µl of jack bean urease (4U) was mixed with 250 µl of different synthesized test compounds and standard of different concentrations [dissolved in DMSO/H2O mixture (1:1 v/v)]. The mixture was pre-incubated for 1 h at 37 °C in test tubes. 2 ml of 100 mM phosphate buffer (pH 6.8) containing 500 mM urea and 0.002% phenol red as an indicator were added in sample test tubes after pre incubation and again incubated at room temperature. Absorbance of reaction mixture was recorded by ELISA at 570 nm. Ammonium carbonate increased the pH of phosphate buffer from 6.8 to 7.7 which was produced from urea by urease enzyme and the end peak was measured by the colour of phenol red indicator [16].
The percentage inhibition of urease enzyme was calculated by using following formula: I%=Acontrol-Asample/Acontrol×100,
where Acontrol is the absorbance of the control; Asample is the absorbance of the test compound.

[3] = Homo sapiens, HCT-116, HCT116, 72 h, SRB, mean of at least triplicates
[4] = HCT116, 72 h, SRB, mean of at least triplicates

Jack Bean Urease, sequence (P07374 whole entry, looked up): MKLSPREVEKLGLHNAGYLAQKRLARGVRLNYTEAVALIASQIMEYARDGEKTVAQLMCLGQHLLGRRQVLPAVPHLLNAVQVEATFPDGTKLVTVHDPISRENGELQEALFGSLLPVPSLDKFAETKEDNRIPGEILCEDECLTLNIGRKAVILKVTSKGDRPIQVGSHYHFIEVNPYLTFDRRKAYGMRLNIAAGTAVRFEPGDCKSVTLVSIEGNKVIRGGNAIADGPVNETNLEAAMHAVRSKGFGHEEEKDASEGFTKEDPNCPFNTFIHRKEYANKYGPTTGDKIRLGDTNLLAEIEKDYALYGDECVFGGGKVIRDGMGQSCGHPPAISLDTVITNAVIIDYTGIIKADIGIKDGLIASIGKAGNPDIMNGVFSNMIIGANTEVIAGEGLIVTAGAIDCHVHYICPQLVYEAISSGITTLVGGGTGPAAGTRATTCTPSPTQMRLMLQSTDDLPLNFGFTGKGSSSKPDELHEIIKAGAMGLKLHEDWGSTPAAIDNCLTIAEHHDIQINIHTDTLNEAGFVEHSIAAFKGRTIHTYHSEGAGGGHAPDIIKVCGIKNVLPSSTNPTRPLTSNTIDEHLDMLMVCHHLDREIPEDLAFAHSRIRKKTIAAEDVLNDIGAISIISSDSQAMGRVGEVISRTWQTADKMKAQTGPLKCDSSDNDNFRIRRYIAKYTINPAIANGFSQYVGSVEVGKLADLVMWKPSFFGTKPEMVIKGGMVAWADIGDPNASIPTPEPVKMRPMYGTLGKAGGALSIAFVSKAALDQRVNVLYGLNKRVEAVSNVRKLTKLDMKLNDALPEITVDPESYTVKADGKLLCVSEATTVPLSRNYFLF

| Compound | MIC (Aspergillus niger; Aspergillus niger, 168 h) | MIC (Candida albicans; Candida albicans) | IC50 [1] | % inhibition ([1]; 25 µg/ml) | % inhibition ([1]; 50 µg/ml) | % inhibition ([1]; 75 µg/ml) | % inhibition ([1]; 100 µg/ml) | MIC (Pseudomonas aeruginosa; Pseudomonas aeruginosa) | MIC (Bacillus subtilis; Bacillus subtilis) | MIC (Escherichia coli; Escherichia coli) | IC50 [2, 3] | IC50 (Jack Bean Urease) | inhibition at 25 µg/mL (Jack Bean Urease) | inhibition at 50 µg/mL (Jack Bean Urease) | inhibition at 75 µg/mL (Jack Bean Urease) | inhibition at 100 µg/mL (Jack Bean Urease) | MIC (Aspergillus niger) | IC50 (Jack Bean Urease; urease inhibition) | % inhibition (Jack Bean Urease; 25 µg/ml) | % inhibition (Jack Bean Urease; 50 µg/ml) | other results |
| --- | --- | --- | --- | --- | --- | --- | --- | --- | --- | --- | --- | --- | --- | --- | --- | --- | --- | --- | --- | --- | --- |
| CCCCCCCCCCCCCCCc1nnc(S)n1N=Cc1cccc([N+](=O)[O-])c1 [Compound T16] | 218 µM (≈ 100 µg/mL) | 218 µM (≈ 100 µg/mL) | 41.30 µg/mL (≈ 89.8 µM) | 43.65% | 51.45% | 67.26% | 81.76% | 109 µM (≈ 50 µg/mL) | 109 µM (≈ 50 µg/mL) | 218 µM (≈ 100 µg/mL) | 169 µM | 115 µM | 45.8% | 49.1% | 53.9% | 59.1% |  |  |  |  | melting point: 199 to 202 °C |
| CCCCCCCCCCCCCCCc1nnc(S)n1N=Cc1ccc(OC)c(O)c1 [Compound T6] | 217 µM (≈ 100 µg/mL) | 108 µM (≈ 50 µg/mL) | 45.66 µg/mL (≈ 99.1 µM) | 31.67% | 53.67% | 77.78% | 92.67% | 54.2 µM (≈ 25 µg/mL) | 108 µM (≈ 50 µg/mL) | 54.2 µM (≈ 25 µg/mL) | 112 µM | 102 µM | 38.5% | 50.3% | 65.6% | 80.9% | 217.0 µM (≈ 100 µg/mL) |  |  |  | melting point: 189 to 192 °C |
| CCCCCCCCCCCCCCCc1nnc(S)n1N=Cc1cc(OC)c(OC)c(OC)c1 [Compound T5] | 99 µM (≈ 50 µg/mL) | 12.3 µM (≈ 6.21 µg/mL) | 39.13 µg/mL (≈ 77.5 µM) | 42.34% | 55.67% | 68.98% | 78.12% | 12.3 µM (≈ 6.21 µg/mL) | 24.7 µM (≈ 12.5 µg/mL) | 24.7 µM (≈ 12.5 µg/mL) | > 198 µM | 108 µM | 23.3% | 44.4% | 70.9% | 90.9% | 99.0 µM (≈ 50 µg/mL) |  |  |  |  |
| O=c1[nH]cc(F)c(=O)[nH]1 [Compound 5-FU, Fluorouracil, reference compound] |  |  |  |  |  |  |  |  |  |  | 25.4 µM |  |  |  |  |  |  |  |  |  | IC50 ([2]; Homo sapiens, HCT-116, HCT116, value given in dose-response figure): 3.3 µg/mL |
| OC(Cn1cncn1)(Cn1cncn1)c1ccc(F)cc1F [Fluconazole, reference compound] | 20.4 µM (≈ 6.25 µg/mL) | 40.8 µM (≈ 12.5 µg/mL) |  |  |  |  |  |  |  |  |  |  |  |  |  |  |  |  |  |  |  |
| CCCCCCCCCCCCCCCc1nnc(S)n1N=Cc1c(O)ccc2ccccc12 [Compound T18] |  |  |  | 39.59% | 68.57% | 80.13% | 95.89% |  |  |  |  |  |  |  |  |  | 104 µM and 104.0 µM | 54.30 µg/mL | 40.90% | 46.79% | MIC (Candida albicans): 208 µM and 208.0 µM; MIC (Pseudomonas aeruginosa): 52.0 µM (≈ 25 µg/mL); MIC (Bacillus subtilis): 104.0 µM (≈ 50 µg/mL); MIC (Escherichia coli): 104.0 µM (≈ 50 µg/mL); IC50 [2, 4]: > 208 µM; % inhibition (Jack Bean Urease; 75 µg/ml): 55.89%; % inhibition (Jack Bean Urease; 100 µg/ml): 67.9% |
| O=C1O[C@H]([C@@H](O)CO)C(O)=C1O [Ascorbic acid, reference compound] |  |  | 35.44 µg/mL (≈ 201 µM) | 38.67% | 63.68% | 84.78% | 94.45% |  |  |  |  |  |  |  |  |  |  |  |  |  |  |
| NC(N)=S [Thiourea, reference compound] |  |  |  |  |  |  |  |  |  |  |  |  |  |  |  |  |  | 54.25 µg/mL | 29.98% | 46.76% | % inhibition (Jack Bean Urease; 75 µg/ml): 67.78%; % inhibition (Jack Bean Urease; 100 µg/ml): 76.78% |
| CCCCCCCCCCCCCCCc1nnc(S)n1N=Cc1ccco1 [Compound T20] |  |  | 46.34 µg/mL (≈ 115 µM) | 33.45% | 53.67% | 70.46% | 92.67% |  |  |  |  |  |  |  |  |  | 247.1 µM (≈ 100 µg/mL) | 52.34 µg/mL | 28.98% | 49.09% | MIC (Candida albicans): 247.1 µM (≈ 100 µg/mL); MIC (Pseudomonas aeruginosa): 123.5 µM (≈ 50 µg/mL); MIC (Bacillus subtilis): 61.7 µM (≈ 25 µg/mL); MIC (Escherichia coli): 61.7 µM (≈ 25 µg/mL); IC50 [2, 4]: > 247 µM; % inhibition (Jack Bean Urease; 75 µg/ml): 69.09%; % inhibition (Jack Bean Urease; 100 µg/ml): 81.90% |
